What all share (experiment): growth of human tumour cells (NCI), 48 h
The test system of assay [1] is EKVX.
Assay [2] concerns HCC 2998.
The subject of assay [3] is HCT-116.
For assay [4], the system named is K562.
Assay [5] has as its system MOLT-4.
Assay [6] relates to NCI-H23.
For assay [7], the system named is OVCAR-3.
Assay [8] relates to OVCAR-5.
In assay [9] the test system is OVCAR-8.
Assay [10] relates to SF-268.
Assay [11] deals with SF-539.
Assay [12] concerns SK-MEL-5.
In assay [13] the test system is SN12C.
Assay [14] relates to SNB-19.
Assay [15] has as its system TK-10.
Assay [16] has as its system UACC-62.
Assay [17] concerns UO-31.
In assay [18] the test system is HCT-15.

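Values below derive from 48-hour exposures of cells grown in 96-well plates, with endpoints linearly interpolated between the two concentrations bracketing the appropriate inhibition level. GI50 = concentration required for 50% inhibition of growth.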 Activity calls are given as the source filed them. Cut-off read from the data, not from the text of the source: active = GI50 up to about 1.1 µM and inactive = higher.

The text below walks through data of ChEMBL document CHEMBL1201862, “PubChem BioAssay data set” (2004).

Regarding `Cc1ccc(NC(=O)CC(=O)n2nc(-c3ccccc3)c(/N=N\c3ccccc3[N+](=O)[O-])c2-c2ccccc2)cc1`, the GI50 in [1] is > 100 µM (inactive); in assay [2], > 100 µM (inactive); in [3] it was 70.3 µM (inactive); in assay [4], > 100 µM (inactive); in [5], > 100 µM (inactive); in assay [6] it was > 100 µM (inactive). Besides, the GI50 is 82.8 µM (inactive) in assay [7]; > 100 µM (inactive) in [8]; 67.5 µM (inactive) in assay [9]; 51.2 µM (inactive) in assay [10]; 37.2 µM (inactive) in assay [11]; 57.5 µM (inactive) in assay [12]. The GI50 was > 100 µM (inactive) in assay [13]; 56.6 µM (inactive) in [14]; > 100 µM (inactive) in assay [15]; > 100 µM (inactive) in assay [16]; > 100 µM (inactive) in assay [17].

Regarding `COc1ccc(/C=C2\CCCC(C(NO)c3ccc(OC)cc3)C2=NO)cc1` (configuration not stated), the GI50 in assay [1] is 48.8 µM (inactive); in assay [2], 61.2 µM (inactive); in [3], 35.8 µM (inactive); in assay [18], 35.6 µM; in [4], 35.4 µM (inactive); in assay [5], 23.1 µM (inactive). In addition, the GI50 in [6] is 38.6 µM (inactive); in assay [7], 47.3 µM (inactive); in assay [9] it was 40.5 µM (inactive); in [10], 68.2 µM (inactive); in assay [11], 27.5 µM (inactive); in assay [12], 20 µM (inactive). The GI50 in assay [13] was 39.3 µM (inactive); in assay [14], 61.4 µM (inactive); in assay [15] it was 66.1 µM (inactive); in [16], 53 µM (inactive); in assay [17], 28.8 µM (inactive).

For `CC1(O)CCn2c(=O)c3cc4ccccc4cc3c(=O)n2C1O` (configuration not stated), the GI50 was > 100 µM (inactive) in assay [1]; > 100 µM (inactive) in [2]; > 100 µM (inactive) in [3]; more than 100 µM in [18]; > 100 µM (inactive) in assay [4]; > 100 µM (inactive) in assay [5]. Also, the GI50 in assay [6], in assay [7], in [8], in assay [9], in assay [10] and in assay [11] was > 100 µM (inactive) throughout. Besides, the GI50 in [12], in assay [13], in assay [14], in assay [15] and in [16] was > 100 µM (inactive) throughout.

For `CC(=O)Nc1ccccc1-c1nc2ccccc2nc1C`, the GI50 in [1] was > 100 µM (inactive); in [3], > 100 µM (inactive); in assay [18] it was more than 100 µM; in assay [4], > 100 µM (inactive); in [5], > 100 µM (inactive); in assay [6], > 100 µM (inactive). Besides, the GI50 in [7], in assay [8], in assay [9], in assay [10], in [11] and in assay [12] was > 100 µM (inactive) each time. Moreover, the GI50 is > 100 µM (inactive) in assay [13]; > 100 µM (inactive) in assay [14]; > 100 µM (inactive) in assay [15]; > 100 µM (inactive) in [16]; 61.9 µM (inactive) in [17].

For `NN=C1/C(=C\c2ccccc2)CCC/C1=C/c1ccccc1`, the GI50 in assay [1] is 44.7 µM (inactive); in assay [2], 35.6 µM (inactive); in [3] it was 30.8 µM (inactive); in assay [18] it was 36.7 µM; in assay [4], 20.4 µM (inactive); in assay [5], 17.9 µM (inactive). The GI50 in assay [6] is 36.9 µM (inactive); in [7] it was 32.3 µM (inactive); in [8], 94 µM (inactive); in [9], 50.4 µM (inactive); in assay [10], 34.3 µM (inactive); in assay [11] it was 24.4 µM (inactive). Further, the GI50 was 27 µM (inactive) in assay [13]; 44 µM (inactive) in assay [14]; > 100 µM (inactive) in [15]; 40.3 µM (inactive) in assay [16]; 27.1 µM (inactive) in [17].

For the compound `Cc1nc(C(N)=O)c(N)n1CCN1CCN(C(=O)CCCCCCCCCCNC2NC=Nc3[nH]cnc32)CC1` (configuration not stated), the GI50 was > 100 µM (inactive) in [2]; 43.4 µM (inactive) in assay [3]; more than 100 µM in [18]; 13.2 µM (inactive) in assay [4]; 11.6 µM (inactive) in assay [5]; 10.1 µM (inactive) in assay [6]. Besides, the GI50 in [7] is 45.9 µM (inactive); in assay [8], > 100 µM (inactive); in [9], 33.9 µM (inactive); in [10], 41.7 µM (inactive); in [11] it was > 100 µM (inactive); in assay [13] it was 80.7 µM (inactive). In addition, the GI50 is > 100 µM (inactive) in assay [14], 90.2 µM (inactive) in assay [15], 29.8 µM (inactive) in assay [16] and > 100 µM (inactive) in assay [17].

Consider `COP(=O)(OC)/C(=N\Nc1ccc([N+](=O)[O-])cc1)NCc1ccccc1`, for which the GI50 in assay [2] was 62.5 µM (inactive); in assay [3], 21 µM (inactive); in assay [18] it was 32.4 µM; in assay [4], 27.5 µM (inactive); in assay [5], 25.8 µM (inactive); in assay [6] it was 18.9 µM (inactive). Moreover, the GI50 in assay [7] is 33.4 µM (inactive); in [8], 40.3 µM (inactive); in assay [9] it was 30.5 µM (inactive); in assay [10], 23.7 µM (inactive); in [11], 17.7 µM (inactive); in [12] it was 17.5 µM (inactive). Also, the figures for the GI50 in assay [15] and in assay [16] were 30 µM (inactive) and 28 µM (inactive), respectively.

For `Cc1c(N2CCN(C)CC2)nc2ccc(Cl)cc2c1-c1ccccc1`, the GI50 is 17.7 µM (inactive) in assay [1]; > 10 µM (inactive) in assay [2]; 17.8 µM (inactive) in [3]; 18.9 µM in assay [18]; 14.5 µM (inactive) in assay [4]; > 10 µM (inactive) in assay [5]. Also, the GI50 was 23.1 µM (inactive) in assay [6]; 24.3 µM (inactive) in [7]; 16.6 µM (inactive) in assay [9]; 29.4 µM (inactive) in assay [10]; 17.6 µM (inactive) in assay [11]; 15.4 µM (inactive) in [12]. For the same compound, the GI50 in [13] is 14.7 µM (inactive); in assay [14], 25.2 µM (inactive); in assay [15], > 10 µM (inactive); in assay [16], 15.7 µM (inactive); in assay [17], 16.5 µM (inactive).

As to `COc1c(NC(C)=O)cc(C)cc1NC(C)=O`, the GI50 in assay [1] is > 100 µM (inactive); in assay [2], > 100 µM (inactive); in assay [3] it was > 100 µM (inactive); in [18], more than 100 µM; in [4] it was > 100 µM (inactive); in [5], > 100 µM (inactive). Moreover, the GI50 in assay [7], in assay [9], in assay [10], in assay [11], in [12] and in [13] was > 100 µM (inactive) each time. For the same compound, the GI50 in [15] and in assay [16] was > 100 µM (inactive) throughout.

Take `O=C1NC2C(=O)N(Cc3ccccc3)C(=O)C2N1` (configuration not stated): the GI50 in [1] was > 100 µM (inactive); in assay [2], > 100 µM (inactive); in assay [3] it was > 100 µM (inactive); in [18], more than 100 µM; in assay [4], > 100 µM (inactive); in [5], > 100 µM (inactive). Moreover, the GI50 in assay [6], in assay [7], in assay [8], in [10], in assay [11] and in [12] was > 100 µM (inactive) each time. Besides, the GI50 in [13], in assay [14], in [15], in [16] and in assay [17] was > 100 µM (inactive) in each case.

As for `CC/C(CC(=O)CCC(=O)Nc1ccc(C)c(C)c1)=N\NC(=O)C(N)=O`, the GI50 in assay [1] is > 100 µM (inactive); in assay [3] it was > 100 µM (inactive); in assay [18], more than 100 µM; in [4], > 100 µM (inactive); in assay [5], > 100 µM (inactive); in assay [6], > 100 µM (inactive). For the same compound, the GI50 in [7], in assay [8], in assay [9], in assay [10], in assay [11] and in assay [12] was > 100 µM (inactive) each time. The GI50 in assay [13], in assay [14], in assay [15], in [16] and in assay [17] was > 100 µM (inactive) each time.

In the case of `O=C(/C=C/c1c(O)ccc2ccccc12)c1ccc2ccccc2c1`, the GI50 in assay [1] is > 100 µM (inactive); in assay [2], > 100 µM (inactive); in [3], > 100 µM (inactive); in [18], more than 100 µM; in [4], > 100 µM (inactive); in [5], > 100 µM (inactive). Also, the GI50 in assay [6], in [7], in assay [8], in assay [9], in [10] and in assay [11] was > 100 µM (inactive) in each case. Also, the GI50 in assay [13] is > 100 µM (inactive); in assay [14] it was > 100 µM (inactive); in assay [15], > 100 µM (inactive); in assay [16], 59.8 µM (inactive); in assay [17], > 100 µM (inactive).
